GI50 and TGI data for eight compounds are collected here from PubChem BioAssay (NCI).

The structures appear in SMILES notation. Several values for one entry are separate records, joined by “and”; a condition that tells them apart may be missing. Equal entries are not always repeated.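 1) Cells in 96-well plates. 2) Compound, 48 h, 5 concentrations. 3) Linear interpolation between surrounding doses. 4) Unreached endpoint = highest concentration. GI50 = concentration required for 50% inhibition of growth. TGI: concentration producing complete growth inhibition.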

Among the test systems are COLO 205 colon; HCC-2998 colon; MOLT-4 leukemia; NCI-H460 lung; NCI-H522 lung; OVCAR-8 ovarian; SF-295 CNS; SK-MEL-5 melanoma; UACC-257 melanoma; UO-31 renal.
Common to all, as to assay: NCI-60 cell line screen, 48 h

Take `COc1cnc2c(c1)C(=O)c1c-2n(CCCN2CCCC2)c(=O)c2cc(Cl)ccc12`: the GI50 in the assay with COLO 205 colon was 0.161 µM; in the assay with HCC-2998 colon, 5.07 µM; with MOLT-4 leukemia, 0.0193 µM; with NCI-H460 lung, 0.0217 µM; with NCI-H522 lung, 0.27 µM; with OVCAR-8 ovarian, 0.813 µM. Moreover, the GI50 with SF-295 CNS was 0.0278 µM; with SK-MEL-5 melanoma it was 2.54 µM; in the assay on UACC-257 melanoma, 7.85 µM; in the assay on UO-31 renal it was 0.599 µM. Moreover, the TGI is 8.22 µM in the assay with COLO 205 colon; 12.1 µM with HCC-2998 colon; 6.23 µM with MOLT-4 leukemia; 5.51 µM in the assay on NCI-H460 lung; 13.8 µM in the assay on NCI-H522 lung; 12.2 µM in the assay with OVCAR-8 ovarian. For the same compound, the TGI in the assay with SF-295 CNS turned out to be 6.8 µM; in the assay on SK-MEL-5 melanoma, 9.48 µM; in the assay on UACC-257 melanoma it was 21.6 µM; in the assay with UO-31 renal it was 9.02 µM.
For the compound `Cc1c(C)c2ccc(OC/C=C3\CCC(=O)O3)cc2oc1=O`, the GI50 in the assay with COLO 205 colon was 16.4 µM; with HCC-2998 colon, 18.3 µM; in the assay with MOLT-4 leukemia, 19.8 µM; in the assay with NCI-H460 lung, 16.4 µM; in the assay on NCI-H522 lung, 10.2 µM; with OVCAR-8 ovarian, 16.5 µM. For the same compound, the GI50 is 20.5 µM with SF-295 CNS, 17.4 µM in the assay on SK-MEL-5 melanoma, 15.9 µM in the assay on UACC-257 melanoma and 10.6 µM in the assay on UO-31 renal. The TGI with COLO 205 colon is 48.9 µM; with HCC-2998 colon, 33 µM; with MOLT-4 leukemia, > 100 µM; in the assay on NCI-H460 lung it was 35.6 µM; with NCI-H522 lung it was 23.7 µM; in the assay with OVCAR-8 ovarian, 34.8 µM. For the same compound, the TGI in the assay with SF-295 CNS amounted to 45 µM; in the assay with SK-MEL-5 melanoma it was 32.8 µM; in the assay on UACC-257 melanoma, 31.3 µM; with UO-31 renal, 22.4 µM.
As to `COc1ccccc1-c1c(C)nn2c(NCc3ccccn3)cc(C)nc12`, the GI50 with COLO 205 colon was 1.92 µM; in the assay with HCC-2998 colon, > 50 µM; in the assay on MOLT-4 leukemia, 7.68 µM; in the assay on NCI-H460 lung, 27.1 µM; with NCI-H522 lung, 21.3 µM; with OVCAR-8 ovarian, 23.9 µM. For the same compound, the GI50 is 21.2 µM in the assay on SF-295 CNS, 14.8 µM in the assay on SK-MEL-5 melanoma, 11.2 µM with UACC-257 melanoma and 10.2 µM in the assay with UO-31 renal. The TGI with COLO 205 colon, with HCC-2998 colon, with MOLT-4 leukemia, in the assay with NCI-H460 lung, with NCI-H522 lung and with OVCAR-8 ovarian was > 50 µM throughout. For the same compound, the TGI is > 50 µM in the assay on SF-295 CNS, 49.6 µM in the assay on SK-MEL-5 melanoma, > 50 µM with UACC-257 melanoma and > 50 µM with UO-31 renal.
For the compound `C[C@H](CSC(=O)c1ccccc1)C(=O)N1c2ccccc2C[C@H]1C(=O)O`, the TGI with COLO 205 colon is > 100 µM; in the assay on HCC-2998 colon it was > 100 µM; in the assay on MOLT-4 leukemia, > 100 µM; with NCI-H460 lung it was > 10 µM; in the assay with NCI-H522 lung it was > 100 µM; in the assay with OVCAR-8 ovarian, > 100 µM. Also, the TGI in the assay with SF-295 CNS, in the assay with SK-MEL-5 melanoma, in the assay with UACC-257 melanoma and in the assay with UO-31 renal was > 100 µM each time.
As to `CC1CC2(CC[C@@H]1O)OCCO2` (stereo not given in full), the TGI in the assay with COLO 205 colon, with HCC-2998 colon, in the assay on MOLT-4 leukemia, in the assay on NCI-H460 lung, in the assay on NCI-H522 lung and with OVCAR-8 ovarian was > 100 µM throughout. Also, the TGI in the assay on SF-295 CNS, in the assay with SK-MEL-5 melanoma, in the assay on UACC-257 melanoma and in the assay on UO-31 renal was > 100 µM in each case.
For `CC(=O)C1=C([O-])C(C)OC1=O.CC(=O)C1=C([O-])C(C)OC1=O.[NH-]C1CCCC[C@H]1[NH-].[Pt+4]` (stereo not given), the GI50 was 35.1 µM in the assay with COLO 205 colon; > 100 µM in the assay on HCC-2998 colon; 3.9 µM in the assay with MOLT-4 leukemia; 30.5 µM in the assay with NCI-H460 lung; 27.5 µM in the assay on NCI-H522 lung; > 100 µM in the assay on OVCAR-8 ovarian. For the same compound, the GI50 in the assay with SF-295 CNS was > 100 µM; with SK-MEL-5 melanoma it was 57.5 µM; with UACC-257 melanoma, > 100 µM; in the assay with UO-31 renal, > 100 µM. Besides, the TGI is > 100 µM in the assay with COLO 205 colon; > 100 µM in the assay on HCC-2998 colon; 53.9 µM in the assay on MOLT-4 leukemia; > 100 µM in the assay with NCI-H460 lung; > 100 µM in the assay on NCI-H522 lung; > 100 µM in the assay with OVCAR-8 ovarian. The TGI with SF-295 CNS, with SK-MEL-5 melanoma, in the assay with UACC-257 melanoma and in the assay on UO-31 renal was > 100 µM each time.
`CCN1C(=O)N(CC)C2C1NN=c1s/c(=C3\C(=O)N(C)c4ccccc43)c(=O)n12` (stereo not given): the GI50 in the assay on COLO 205 colon is 1.08 µM; in the assay with HCC-2998 colon it was 1.8 µM; with MOLT-4 leukemia, 1.7 µM; in the assay with NCI-H460 lung, 1.29 µM; with NCI-H522 lung, 0.609 µM; with OVCAR-8 ovarian, 2.82 µM. In addition, the GI50 in the assay on SF-295 CNS was 0.999 µM; with SK-MEL-5 melanoma, 0.837 µM; in the assay with UACC-257 melanoma, 4.2 µM; with UO-31 renal, 1.28 µM. The TGI is 55.1 µM in the assay on COLO 205 colon; > 100 µM in the assay on HCC-2998 colon; > 100 µM in the assay on MOLT-4 leukemia; > 100 µM in the assay with NCI-H460 lung; 33 µM with NCI-H522 lung; > 100 µM in the assay with OVCAR-8 ovarian. Also, the TGI in the assay on SF-295 CNS is > 28.8 µM; in the assay with SK-MEL-5 melanoma, > 89.2 µM; with UACC-257 melanoma, > 100 µM; in the assay with UO-31 renal, > 100 µM.
In the case of `CCCCCc1c(C)[nH]c(/C=C2\N=C(c3ccc[nH]3)C=C2Oc2ccc(Cl)cc2)c1C`, the GI50 in the assay on COLO 205 colon was 0.129 µM and 0.0289 µM; with HCC-2998 colon it was 0.0439 µM and 0.0241 µM; in the assay with MOLT-4 leukemia, 0.064 µM; with NCI-H460 lung, 0.0545 µM and 0.024 µM; in the assay on NCI-H522 lung, 0.0455 µM and 0.0305 µM; with OVCAR-8 ovarian, 0.16 µM and 0.0296 µM. Also, the GI50 was 0.17 µM and 0.0832 µM in the assay with SF-295 CNS; 0.027 µM and 0.0234 µM in the assay with SK-MEL-5 melanoma; 0.28 µM and 0.0706 µM in the assay on UACC-257 melanoma; 0.142 µM and 0.0599 µM in the assay on UO-31 renal. Further, the TGI in the assay on COLO 205 colon is 1.77 µM and 1.18 µM; in the assay with HCC-2998 colon, 2.67 µM and 7.35 µM; in the assay with MOLT-4 leukemia, 1.88 µM; with NCI-H460 lung, 12 µM; in the assay on NCI-H522 lung it was 1.02 µM and 1.28 µM; in the assay with OVCAR-8 ovarian it was 1.98 µM. The TGI with SF-295 CNS is 0.57 µM and 1.1 µM; in the assay with SK-MEL-5 melanoma, 0.0762 µM and 0.0818 µM; in the assay with UACC-257 melanoma, 3 µM and 2.78 µM; in the assay with UO-31 renal, 0.32 µM and 0.222 µM.
